# Experimental data from patent US20230017045A1, “PYRIDINE AND PYRIMIDINE CARBOXYLATE HERBICIDES AND METHODS OF USE THEREOF” (Dow AgroSciences LLC, priority 2017, published 2023).
# Test system: test plant species
# Assay: Post-emergent herbicidal activity test (greenhouse, foliar spray, visual growth reduction)
# Assay type: in vivo
# Details: post-emergence, 336 h, ALOMY: blackgrass (Alopecurus myosuroides), 140 g ai/ha, 14 days after application, read-out: Visual Growth Reduction (%) 14 Days After Application, ALOMY
# In short: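 Scoring used a 0 to 100 percent visual scale of growth reduction against solvent-treated controls, read 14 d after spraying. Applications went onto plants at first or second true leaf stage, 187 L/ha, with crop oil concentrate and X-77 surfactant in the carrier. Post-treatment watering was by subirrigation to avoid wash-off.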
row,SMILES,pest or weed control at 140 g/ha
1,"COC(=O)c1nc(-c2ccc(Cl)c(F)c2Cl)ccc1Cl [F63, Methyl 3-chloro-6-(2,4-dichloro-3-fluorophenyl) picolinate]",0 to 29%
2,"COC(=O)c1nc(-c2cc3c(cc2Cl)OCO3)ccc1Cl [F144, Methyl 3-chloro-6-(6-chlorobenzo[d] [1,3]dioxol-5-yl) picolinate]",0 to 29%

# Same assay, conditions: post-emergence, 336 h, AMARE: redroot pigweed (Amaranthus retroflexus), 140 g ai/ha, 14 days after application, read-out: Visual Growth Reduction (%) 14 Days After Application, AMARE
row,SMILES,pest or weed control at 140 g/ha
1,"COC(=O)c1nc(-c2ccc(Cl)c(F)c2Cl)ccc1Cl [F63, Methyl 3-chloro-6-(2,4-dichloro-3-fluorophenyl) picolinate]",95 to 100%
2,"COC(=O)c1nc(-c2cc3c(cc2Cl)OCO3)ccc1Cl [F144, Methyl 3-chloro-6-(6-chlorobenzo[d] [1,3]dioxol-5-yl) picolinate]",45 to 59%

# Same assay, conditions: post-emergence, 336 h, AVEFA: wild oat (Avena fatua), 140 g ai/ha, 14 days after application, read-out: Visual Growth Reduction (%) 14 Days After Application, AVEFA
row,SMILES,pest or weed control at 140 g/ha
1,"COC(=O)c1nc(-c2ccc(Cl)c(F)c2Cl)ccc1Cl [F63, Methyl 3-chloro-6-(2,4-dichloro-3-fluorophenyl) picolinate]",0 to 29%
2,"COC(=O)c1nc(-c2cc3c(cc2Cl)OCO3)ccc1Cl [F144, Methyl 3-chloro-6-(6-chlorobenzo[d] [1,3]dioxol-5-yl) picolinate]",0 to 29%

# Same assay, conditions: post-emergence, 336 h, CHEAL: lambsquarters (Chenopodium album), 140 g ai/ha, 14 days after application, read-out: Visual Growth Reduction (%) 14 Days After Application, CHEAL
row,SMILES,pest or weed control at 140 g/ha
1,"COC(=O)c1nc(-c2ccc(Cl)c(F)c2Cl)ccc1Cl [F63, Methyl 3-chloro-6-(2,4-dichloro-3-fluorophenyl) picolinate]",95 to 100%
2,"COC(=O)c1nc(-c2cc3c(cc2Cl)OCO3)ccc1Cl [F144, Methyl 3-chloro-6-(6-chlorobenzo[d] [1,3]dioxol-5-yl) picolinate]",75 to 84%

# Same assay, conditions: post-emergence, 336 h, CIRAR: canada thistle (Cirsium arvense), 140 g ai/ha, 14 days after application, read-out: Visual Growth Reduction (%) 14 Days After Application, CIRAR
row,SMILES,pest or weed control at 140 g/ha
1,"COC(=O)c1nc(-c2ccc(Cl)c(F)c2Cl)ccc1Cl [F63, Methyl 3-chloro-6-(2,4-dichloro-3-fluorophenyl) picolinate]",85 to 94%
2,"COC(=O)c1nc(-c2cc3c(cc2Cl)OCO3)ccc1Cl [F144, Methyl 3-chloro-6-(6-chlorobenzo[d] [1,3]dioxol-5-yl) picolinate]",0 to 29%

# Same assay, conditions: post-emergence, 336 h, CYPES: yellow nutsedge (Cyperus esculentus), 140 g ai/ha, 14 days after application, read-out: Visual Growth Reduction (%) 14 Days After Application, CYPES
row,SMILES,pest or weed control at 140 g/ha
1,"COC(=O)c1nc(-c2ccc(Cl)c(F)c2Cl)ccc1Cl [F63, Methyl 3-chloro-6-(2,4-dichloro-3-fluorophenyl) picolinate]",0 to 29%
2,"COC(=O)c1nc(-c2cc3c(cc2Cl)OCO3)ccc1Cl [F144, Methyl 3-chloro-6-(6-chlorobenzo[d] [1,3]dioxol-5-yl) picolinate]",0 to 29%

# Same assay, conditions: post-emergence, 336 h, DIGSA: crabgrass (Digitaria sanguinalis), 140 g ai/ha, 14 days after application, read-out: Visual Growth Reduction (%) 14 Days After Application, DIGSA
row,SMILES,pest or weed control at 140 g/ha
1,"COC(=O)c1nc(-c2ccc(Cl)c(F)c2Cl)ccc1Cl [F63, Methyl 3-chloro-6-(2,4-dichloro-3-fluorophenyl) picolinate]",85 to 94%
2,"COC(=O)c1nc(-c2cc3c(cc2Cl)OCO3)ccc1Cl [F144, Methyl 3-chloro-6-(6-chlorobenzo[d] [1,3]dioxol-5-yl) picolinate]",0 to 29%

# Same assay, conditions: post-emergence, 336 h, ECHCG: barnyardgrass (Echinochloa crus-galli), 140 g ai/ha, 14 days after application, read-out: Visual Growth Reduction (%) 14 Days After Application, ECHCG
row,SMILES,pest or weed control at 140 g/ha
1,"COC(=O)c1nc(-c2cc3c(cc2Cl)OCO3)ccc1Cl [F144, Methyl 3-chloro-6-(6-chlorobenzo[d] [1,3]dioxol-5-yl) picolinate]",0 to 29%

# Same assay, conditions: post-emergence, 336 h, IPOHE: ivy-leaf morning glory (Ipomoea hederacea), 140 g ai/ha, 14 days after application, read-out: Visual Growth Reduction (%) 14 Days After Application, IPOHE
row,SMILES,pest or weed control at 140 g/ha
1,"COC(=O)c1nc(-c2ccc(Cl)c(F)c2Cl)ccc1Cl [F63, Methyl 3-chloro-6-(2,4-dichloro-3-fluorophenyl) picolinate]",95 to 100%
2,"COC(=O)c1nc(-c2cc3c(cc2Cl)OCO3)ccc1Cl [F144, Methyl 3-chloro-6-(6-chlorobenzo[d] [1,3]dioxol-5-yl) picolinate]",75 to 84%

# Same assay, conditions: post-emergence, 336 h, KCHSC: kochia (Bassia scoparia), 140 g ai/ha, 14 days after application, read-out: Visual Growth Reduction (%) 14 Days After Application, KCHSC
row,SMILES,pest or weed control at 140 g/ha
1,"COC(=O)c1nc(-c2ccc(Cl)c(F)c2Cl)ccc1Cl [F63, Methyl 3-chloro-6-(2,4-dichloro-3-fluorophenyl) picolinate]",60 to 74%
2,"COC(=O)c1nc(-c2cc3c(cc2Cl)OCO3)ccc1Cl [F144, Methyl 3-chloro-6-(6-chlorobenzo[d] [1,3]dioxol-5-yl) picolinate]",0 to 29%

# Same assay, conditions: post-emergence, 336 h, ORYSA: rice (Oryza sativa), 140 g ai/ha, 14 days after application, read-out: Visual Growth Reduction (%) 14 Days After Application, ORYSA
row,SMILES,pest or weed control at 140 g/ha
1,"COC(=O)c1nc(-c2ccc(Cl)c(F)c2Cl)ccc1Cl [F63, Methyl 3-chloro-6-(2,4-dichloro-3-fluorophenyl) picolinate]",0 to 29%
2,"COC(=O)c1nc(-c2cc3c(cc2Cl)OCO3)ccc1Cl [F144, Methyl 3-chloro-6-(6-chlorobenzo[d] [1,3]dioxol-5-yl) picolinate]",0 to 29%

# Same assay, conditions: post-emergence, 336 h, SETFA: giant foxtail (Setaria faberi), 140 g ai/ha, 14 days after application, read-out: Visual Growth Reduction (%) 14 Days After Application, SETFA
row,SMILES,pest or weed control at 140 g/ha
1,"COC(=O)c1nc(-c2ccc(Cl)c(F)c2Cl)ccc1Cl [F63, Methyl 3-chloro-6-(2,4-dichloro-3-fluorophenyl) picolinate]",75 to 84%
2,"COC(=O)c1nc(-c2cc3c(cc2Cl)OCO3)ccc1Cl [F144, Methyl 3-chloro-6-(6-chlorobenzo[d] [1,3]dioxol-5-yl) picolinate]",0 to 29%

# Same assay, conditions: post-emergence, 336 h, SORVU: grain sorghum (Sorghum vulgare), 140 g ai/ha, 14 days after application, read-out: Visual Growth Reduction (%) 14 Days After Application, SORVU
row,SMILES,pest or weed control at 140 g/ha
1,"COC(=O)c1nc(-c2ccc(Cl)c(F)c2Cl)ccc1Cl [F63, Methyl 3-chloro-6-(2,4-dichloro-3-fluorophenyl) picolinate]",85 to 94%
2,"COC(=O)c1nc(-c2cc3c(cc2Cl)OCO3)ccc1Cl [F144, Methyl 3-chloro-6-(6-chlorobenzo[d] [1,3]dioxol-5-yl) picolinate]",0 to 29%

# Same assay, conditions: post-emergence, 336 h, STEME: common chickweed (Stellaria media), 140 g ai/ha, 14 days after application, read-out: Visual Growth Reduction (%) 14 Days After Application, STEME
row,SMILES,pest or weed control at 140 g/ha
1,"COC(=O)c1nc(-c2ccc(Cl)c(F)c2Cl)ccc1Cl [F63, Methyl 3-chloro-6-(2,4-dichloro-3-fluorophenyl) picolinate]",0 to 29%
2,"COC(=O)c1nc(-c2cc3c(cc2Cl)OCO3)ccc1Cl [F144, Methyl 3-chloro-6-(6-chlorobenzo[d] [1,3]dioxol-5-yl) picolinate]",0 to 29%

# Same assay, conditions: post-emergence, 336 h, TRZAS: wheat, spring (Triticum aestivum), 140 g ai/ha, 14 days after application, read-out: Visual Growth Reduction (%) 14 Days After Application, TRZAS
row,SMILES,pest or weed control at 140 g/ha
1,"COC(=O)c1nc(-c2cc3c(cc2Cl)OCO3)ccc1Cl [F144, Methyl 3-chloro-6-(6-chlorobenzo[d] [1,3]dioxol-5-yl) picolinate]",0 to 29%
